The values that follow come from ChEMBL document CHEMBL6109062, “Novel tertiary diarylethylamines as functionally selective agonists of the kappa opioid receptor” (Bioorg Med Chem Lett, 2025).

A short description of data set [1]: Clearance in rat. The settings on record: in vivo. The class given is ADME.
Data set [2] can be described thus: in vitro. The following applies: human, liver microsomes. Background: Microsomes from liver hold many membrane-bound enzymes, among them those of drug oxidation.
The nature of data set [3]: in vivo. The following applies: rat, po.
A short description of data set [4]: in vitro. The settings on record: rat, liver microsomes.
The nature of data set [5]: in vitro. The following applies: rat, liver microsomes. The source holds these as a separate data set.
A short description of data set [6]: in vivo. The settings on record: rat, po, 10 mg/kg.
A short description of data set [7]: in vitro. The settings on record: human, hepatocytes.
The nature of data set [8]: in vivo. The settings on record: rat, po, 10 mg/kg. The source holds these as a separate data set.
Data set [9] can be described thus: in vitro. The settings on record: dog, MDCK-MDR1.

For the molecule `Oc1cccc(CCN(CC2CCC2)C2CN(Cc3ccccc3)C2)c1`, the clearance (commonly the rate of elimination divided by the concentration) in data set [1] amounted to 2.7 L/h/kg. Besides, in data set [2], the amount remaining (commonly the share of the starting amount still present when the sample was taken) at 0.25 h was < 5%. In [3], the bioavailability – broadly, the share of a dose that reaches the circulation, judged against a reference dose that is usually intravenous – is < 1%.
For the molecule `O=c1[nH]c2ccc(CCN(CCc3ccccc3)CC3CCC3)cc2[nH]1`, the amount remaining at 0.25 h in data set [2] was 66%; in data set [4], < 5%.
As for `c1ccc(CCN(CCc2ccc3nc[nH]c3c2)CC2CC2)cc1`, the fraction remaining at 0.25 h in data set [2] is 77%; in data set [4], < 5%. In data set [5], this molecule returned a share remaining at 0.5 h of 3%. The half-life (commonly the time in which the quantity being followed falls by half) in data set [6] was 1.2 h. For the same molecule, the hepatocyte CLint (usually the capacity of the preparation to metabolise the compound, expressed as a volume cleared per time) in data set [7] stood at 16.7 µL/min/1e6 cells. The molecule also showed a bioavailability in [8] of 2.7%. In addition, in data set [9], the Papp A→B (usually how fast a substance crosses the layer from the apical side) came out at 55 nm/s.
For the molecule `CC(Cc1ccc2nc[nH]c2c1)N(CCc1ccccc1)CC1CC1` (stereo unspecified), the share remaining at 0.25 h was found to be 70% in [2] and 10% in data set [4]. This molecule also returned a hepatocyte CLint in [7] of 22.1 µL/min/1e6 cells.
In the case of `Oc1cccc(CCN(CCc2ccccc2)CC2CCC2)c1`, in [2], the fraction remaining at 0.25 h is < 5%.
